PubChem BioAssay AID2060486 (Molecular Pharmacology Branch, DTP, NCI, 2025)
“And” between values parts separate entries of the source, which are not always exact repeats. Identical values can stand only once.

Test system: IGROV1 complex spheroids (HUVEC, MSC), viability % test/control
Assay: Anticancer human tumor IGROV1 cell line growth inhibition [GQUAD];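 further: spheroids exposed to compounds for 7 days before readout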
Details: for viability, T/C: stronger effect = lower value; for IC50: curve of compound
Text: DNA G-quadruplex Stabilizer Agents in Combinations in Complex Spheroids
A high-throughput screen of multi-cell type tumor spheroids was designed to identify active combinations of DNA G-quadruplex stabilizer agents and targeted small molecules. Complex spheroids include a stromal component modeled by human endothelial cells (HUVEC) and fibroblasts modeled by human mesenchymal stem cells (MSCs). The concentration ranges selected for each drug and investigational agent were based upon clinically achievable concentrations if the clinical Cmax of the agent was known.
Compounds. The drugs and investigational agents: pidnarulex (CX-5461; NSC782164), APTO-253 (NSC789042), BRACO-19 (NSC847499), peposertib (NSC802822), ceralasertib (NSC780249), elimusertib (NSC800525), camonsertib (NSC841442), AZD-1390 (NSC803789), olaparib (NSC753686), talazoparib (NSC767125), ART-558 (NSC835418), sotorasib (NSC818433), MRTX-1133 (NSC836407), SN-38 (NSC673596), topotecan (NSC609699), etoposide (NSC141540), doxorubicin (NSC123127), gemcitabine (NSC613327), 5-fluorouracil (NSC19893), paclitaxel (NSC125973), vemurafenib (NSC761431), panobinostat (NSC761190), R-306465 (JNJ-16241199; NSC773264), adavosertib (NSC754352), TP-3654 (NSC805149), carboplatin (NSC241240), KSQ-4279 (NSC840948), and staurosporine (NSC755774) were obtained from the National Cancer Institute (NCI) Developmental Therapeutics Program Chemical Repository (34). The FDA-approved anticancer drug set is available from the NCI Developmental Therapeutics Program. […] The stock solutions were prepared in dimethyl sulfoxide (DMSO, Sigma-Aldrich, St. Louis, MO, cat. D2650) at 800-fold the tested concentration and stored at -70 degrees C prior to their use. All drugs and investigational agents were tested over a range starting from a high concentration at or near the clinical Cmax and decreasing in half-log increments. If the clinical Cmax for an agent had not been determined, the highest concentration tested was 10 microM.
2.3 Cell Culture. All cells were maintained in an incubator at 37 degrees C and 5% CO2 with 95% humidity. The PDC lines were cultured according to standard operating procedures established by the NCI PDMR. All PDCs were thawed and cultured in Matrigel-coated flasks prepared with a working solution of 1X Ham's F-12 nutrient mix, without supplementation (Invitrogen, cat. 11765054), 100 U/mL penicillin-streptomycin (Invitrogen, cat. 15140122), and 2.5% Matrigel (Corning Inc., cat. 354248) for the first three passages. The 857933-349-R-J2-PDC line was cultured in 6C/Colon 1B media, which includes advanced DMEM/F-12 (Thermo Fisher Scientific, cat. 12634028), 10 mM HEPES (Thermo Fisher Scientific, cat. 15630080), 1X GlutaMAX supplement (Thermo Fisher Scientific, cat. 35050061), 0.1 mg/mL primocin (InvivoGen, cat. ant-pm-2), 10% defined fetal bovine serum, heat inactivated (HyClone Laboratories Inc., cat. SH30070.03HI), 50% L-WRN conditioned media (ATCC, cat. CRL-3276), 1.25 mM N-Acetyl-L-cysteine (Sigma-Aldrich, cat. A9165), 10 mM nicotinamide (Sigma-Aldrich, cat. N0636), 1X B-27 supplement (Thermo Fisher Scientific, cat. 17504044), 1X N-2 supplement (Thermo Fisher Scientific, cat. 17502048), 10 microM Y-27632 dihydrochloride (Tocris Bioscience, cat. 1254), and 50 ng/mL human EGF recombinant protein (Thermo Fisher Scientific, cat. PHG0311). The 485176-168-R4-J1-PDC line was cultured in Panc media, which includes all 6C/Colon 1B media components plus 100 ng/mL human FGF-10 (Thermo Fisher Scientific, cat. 100-26), 500 nM SB-431542 (Selleckchem, cat. S1067), and gastrin (Tocris, cat. 3006).
[…]

## C#Cc1c(F)ccc2cc(O)cc(-c3ncc4c(N5CC6CCC(C5)N6)nc(OCC56CCCN5CC(F)C6)nc4c3F)c12 (stereo not given)
Compound 0.0316 µM
  viability, T/C: 88.9% and 93.9% and 107%
Compound 0.1 µM
  viability, T/C: 86.7% and 79.6% and 89.4%
Compound 0.316 µM
  viability, T/C: 81.5% and 89.6% and 96.4%
Compound 1 µM
  viability, T/C: 87.2% and 88.1% and 95.8%
Compound 3.16 µM
  viability, T/C: 82% and 85% and 88.4%
Compound 10 µM
  viability, T/C: 51.3% and 49% and 64.6%
  IC50: > 10000 nM and 9690 nM

## C=CC(=O)N1CCN(c2nc(=O)n(-c3c(C)ccnc3C(C)C)c3nc(-c4c(O)cccc4F)c(F)cc23)C(C)C1 (stereo not given)
Compound 0.0316 µM
  viability, T/C: 102% and 105% and 117%
Compound 0.1 µM
  viability, T/C: 95.2% and 95.3% and 106%
Compound 0.316 µM
  viability, T/C: 113% and 105% and 110%
Compound 1 µM
  viability, T/C: 93% and 104% and 122%
Compound 3.16 µM
  viability, T/C: 79.5% and 98.5% and 104%
Compound 10 µM
  viability, T/C: 82.3% and 101% and 92%
  IC50: > 10000 nM

## C=CCn1c(=O)c2cnc(Nc3ccc(N4CCN(C)CC4)cc3)nc2n1-c1cccc(C(C)(C)O)n1
Compound 0.0316 µM
  viability, T/C: 104% and 89% and 99.3%
Compound 0.1 µM
  viability, T/C: 65.7% and 69.2% and 68.7%
Compound 0.316 µM
  viability, T/C: 13.4% and 17.4% and 11.9%
Compound 1 µM
  viability, T/C: 3.03% and 3.13% and 2.69%
Compound 3.16 µM
  viability, T/C: 2.56% and 2.47% and 2.43%
Compound 10 µM
  viability, T/C: 1.88% and 1.86% and 2.35%
  IC50: 141 nM and 153 nM and 146 nM

## CC(=O)O[C@H]1C(=O)[C@@]2(C)[C@H]([C@H](OC(=O)c3ccccc3)[C@]3(O)C[C@H](OC(=O)[C@H](O)[C@@H](NC(=O)c4ccccc4)c4ccccc4)C(C)=C1C3(C)C)[C@]1(OC(C)=O)CO[C@@H]1C[C@@H]2O
Compound 0.0316 µM
  viability, T/C: 5.95% and 6.39% and 7.02%
Compound 0.1 µM
  viability, T/C: 6.41% and 7.03% and 6.33%
Compound 0.316 µM
  viability, T/C: 5.74% and 6.73% and 6.26%
Compound 1 µM
  viability, T/C: 5.25% and 5.94% and 5.15%
Compound 3.16 µM
  viability, T/C: 5.64% and 4.86% and 4.9%
Compound 10 µM
  viability, T/C: 4.25% and 4.95% and 4.52%
  IC50: < 31.6 nM

## CC(C)(O)C1CCC(Nc2ccc3ncc(-c4cccc(C(F)(F)F)c4)n3n2)CC1 (stereo not given)
Compound 0.0316 µM
  viability, T/C: 109% and 102% and 93.8%
Compound 0.1 µM
  viability, T/C: 101% and 72.6% and 98.9%
Compound 0.316 µM
  viability, T/C: 104% and 94.5% and 96.9%
Compound 1 µM
  viability, T/C: 78.5% and 77.2% and 75.5%
Compound 3.16 µM
  viability, T/C: 27% and 35.3% and 27.6%
Compound 10 µM
  viability, T/C: 31.4% and 36.7% and 24.7%
  IC50: 1940 nM and 2140 nM and 1840 nM

## CC(C)n1c(=O)n(C)c2cnc3cc(F)c(-c4ccc(OCCCN5CCCCC5)nc4)cc3c21
Compound 0.0316 µM
  viability, T/C: 91.1% and 96.5% and 97%
Compound 0.1 µM
  viability, T/C: 87.8% and 82.1% and 91.4%
Compound 0.316 µM
  viability, T/C: 91.3% and 101% and 92.9%
Compound 1 µM
  viability, T/C: 68.5% and 77.6% and 81.7%
Compound 3.16 µM
  viability, T/C: 49.1% and 59.8% and 61.3%
Compound 10 µM
  viability, T/C: 16.9% and 16.3% and 16.1%
  IC50: 2820 nM and 4020 nM and 4200 nM

## CC1COCCN1c1cc(-c2ccnn2C)c2ccnc(-c3ccn[nH]3)c2n1 (stereo not given)
Compound 0.0316 µM
  viability, T/C: 81.8% and 73% and 68.8%
Compound 0.1 µM
  viability, T/C: 26.6% and 25.6% and 26.2%
Compound 0.316 µM
  viability, T/C: 11.2% and 10.4% and 10.8%
Compound 1 µM
  viability, T/C: 7.62% and 7.53% and 5.64%
Compound 3.16 µM
  viability, T/C: 4.7% and 5.08% and 4.64%
Compound 10 µM
  viability, T/C: 3.56% and 3.83% and 3.46%
  IC50: 61.9 nM and 55.2 nM and 52.7 nM

## CC1COCCN1c1cc(C2(O)CC3CCC(C2)O3)c2cnn(-c3ccn[nH]3)c2n1 (stereo not given)
Compound 0.0316 µM
  viability, T/C: 51.5% and 57.1% and 50.6%
Compound 0.1 µM
  viability, T/C: 16.8% and 21.7% and 20.7%
Compound 0.316 µM
  viability, T/C: 7.14% and 8.09% and 7.26%
Compound 1 µM
  viability, T/C: 4.84% and 5.33% and 5.42%
Compound 3.16 µM
  viability, T/C: 2.68% and 4.74% and 3.78%
Compound 10 µM
  viability, T/C: 1.72% and 2.09% and 2.04%
  IC50: 32.6 nM and 39.6 nM and 32.3 nM

## CC1COCCN1c1cc(C2(S(C)(=N)=O)CC2)nc(-c2ccnc3[nH]ccc23)n1 (stereo not given)
Compound 0.0316 µM
  viability, T/C: 105% and 96.1% and 78.7%
Compound 0.1 µM
  viability, T/C: 73.3% and 84.4% and 94.9%
Compound 0.316 µM
  viability, T/C: 95.4% and 94.3% and 89.6%
Compound 1 µM
  viability, T/C: 59.5% and 44.8% and 50.7%
Compound 3.16 µM
  viability, T/C: 12.6% and 14.1% and 58.1%
Compound 10 µM
  viability, T/C: 7% and 6.85% and 8.5%
  IC50: 1260 nM and 881 nM and 2970 nM

## CCCS(=O)(=O)Nc1ccc(F)c(C(=O)c2c[nH]c3ncc(-c4ccc(Cl)cc4)cc23)c1F
Compound 0.0316 µM
  viability, T/C: 105% (2×) and 108%
Compound 0.1 µM
  viability, T/C: 96.1% and 96.3% and 95.1%
Compound 0.316 µM
  viability, T/C: 106% and 108% and 97.5%
Compound 1 µM
  viability, T/C: 103% and 80.5% and 96.6%
Compound 3.16 µM
  viability, T/C: 66.4% and 67.2% and 56.1%
Compound 10 µM
  viability, T/C: 21.1% and 13.8% and 16.5%
  IC50: 4800 nM and 4380 nM and 3780 nM

## CC[C@@]1(O)C(=O)OCc2c1cc1n(c2=O)Cc2cc3c(CN(C)C)c(O)ccc3nc2-1
Compound 0.000999 µM
  viability, T/C: 107% and 86.8% and 96.1%
Compound 0.00316 µM
  viability, T/C: 92.1% and 95.8% and 83%
Compound 0.00999 µM
  viability, T/C: 83.8% and 92.3% and 80.7%
Compound 0.0316 µM
  viability, T/C: 42.3% and 42.6% and 30.4%
Compound 0.0999 µM
  viability, T/C: 10.7% and 11.3% and 11%
Compound 0.316 µM
  viability, T/C: 11.4% and 10.2% and 9.99%
  IC50: 24.8 nM and 26.6 nM and 20.1 nM

## CCc1c2c(nc3ccc(O)cc13)-c1cc3c(c(=O)n1C2)COC(=O)[C@]3(O)CC
Compound 0.000999 µM
  viability, T/C: 50.7% and 46.3% and 39%
Compound 0.00316 µM
  viability, T/C: 13.2% and 15%
Compound 0.00999 µM
  viability, T/C: 10.7% and 11.2% and 9.68%
Compound 0.0316 µM
  viability, T/C: 8.77% and 9.76% and 9.57%
Compound 0.0999 µM
  viability, T/C: 4.33% and 4.71% and 5.08%
Compound 0.316 µM
  viability, T/C: 1.32% and 1.27% and 1.78%
  IC50: 1 nM and < 0.999 nM

## CN(C)c1ccc(Nc2c3ccc(NC(=O)CCN4CCCC4)cc3nc3cc(NC(=O)CCN4CCCC4)ccc23)cc1
Compound 0.0316 µM
  viability, T/C: 103% [middle of 12 runs]
Compound 0.1 µM
  viability, T/C: 101% [middle of 12 runs]
Compound 0.316 µM
  viability, T/C: 103% [middle of 12 runs]
Compound 1 µM
  viability, T/C: 100% [middle of 12 runs]
Compound 3.16 µM
  viability, T/C: 87.4% [middle of 12 runs]
Compound 10 µM
  viability, T/C: 52.3% [middle of 12 runs]
